Laboratory results published in article PMC6568410, “A scorpion venom peptide derivative BmKn‒22 with potent antibiofilm activity against Pseudomonas aeruginosa” (PLoS ONE, 2019).
Where no end group is shown, it is not given here.

Legend:
[1] = test system: sheep red blood cells; assay: Hemolytic assay; type: cell-based; conditions: 800 µM, 37 °C, 1 h
Experimental: Hemolytic activity of the test peptides was assayed according to a protocol described previously. Suspension of 2% sheep red blood cells (100 μL) prepared in PBS pH 7.4 was incubated with 100 μL of the test peptides (800 μM, final concentration). After incubation at 37 ^OC for 1 h, the suspension was centrifuged at 1,000 g for 5 min followed by transferring 100 μL of the supernatant to 96 well-microtiter plate (Nunc). Released hemoglobin was then determined by measuring an absorbance at 405 nm using a microplate reader (BioTek Synergy HT). Positive and negative controls in this assay were 1% Triton X-100 and PBS pH 7.4, respectively. Hemolysis (%) was calculated using an equation: (OD405 nm peptide ‒ OD405 nm PBS pH 7.4)/(OD405 nm 1% Triton X-100 ‒ OD405 nm PBS pH 7.4) × 100.

[2] = test system: P. aeruginosa PAO1 biofilms; assay: Antibiofilm activity of BmKn-22 and azithromycin alone or in combination, crystal violet; type: cell-based, Pseudomonas aeruginosa
Experimental: (§1) The effect of BmKn‒2 peptide and derivatives on biofilm formation of P. aeruginosa PAO1 was determined according to the method published previously with some modifications. Briefly, 100 μL of the test peptides was plated into the wells of flat-bottomed 96-well microtiter plates (Nunc™, Roskilde, Denmark) at the final concentrations of 200 ‒ 800 μM. Aliquots of the P. aeruginosa PAO1 suspension were then inoculated to the wells of 96-well microtiter plates to obtain a final concentration of 10^6 CFU/mL. Culture without the test peptides was used as the untreated control. After incubation at 37 ^OC for 24 h without agitation, planktonic cells were removed and the plates were gently rinsed twice with phosphate buffered saline (PBS) pH 7.4. Biofilms were then stained with 0.1% crystal violet solution (Merck, Darmstadt, Germany) for 10 minutes at room temperature. Excess stains were rinsed off with PBS pH 7.4 and the plates were left dry at 37 ^OC for 2 h. Subsequently, biofilm biomass was solubilized with 30% acetic acid and the optical density (OD) measured at 550 nm using a microplate reader (BioTek Synergy HT).
Briefly, P. aeruginosa PAO1 suspension (10^6 CFU/mL, final concentration) was added to the wells of flat-bottomed 96-well microtiter plates (Nunc) containing the test peptide, azithromycin (AZM; Sigma) alone or in combinations. […] Biofilm formation was employed by measuring biofilm biomass stained with crystal violet as a protocol described in previous section.

[3] = test system: P. aeruginosa PAO1 biofilm formation; assay: Biofilm formation assay, crystal violet staining; type: cell-based, Pseudomonas aeruginosa
Experimental: as §1

[4] = test system: lasI mRNA; assay: qRT-PCR of quorum sensing-related gene lasI; type: cell-based, Pseudomonas aeruginosa; conditions: 800 µM, 10 h
Experimental: (§2) The effects of BmKn‒22 peptide on the expression of quorum sensing‒related genes in P. aeruginosa PAO1 were assessed by qPCR. Briefly, bacterial suspension at approximately 10^7 CFU/mL was cultured in the presence or absence of the test peptide (800 μM, final concentration) at 37 ^OC for 10 h using a shaking incubator. After centrifugation at 4,500 rpm for 10 minutes, the bacterial cells were harvested and subsequently subjected to total RNA extraction using TRIzol® reagent (Invitrogen, USA) as per the manufacturer’s instruction. The concentration of the extracted RNA was measured using Nanodrop spectrophotometer (NanoDrop Technologies, USA). Thereafter, 1 μg of extracted RNA was reverse-transcribed into cDNA using Random Hexamer primer and RevertAid First Strand cDNA synthesis kit (Fermantas), which was amplified by real-time PCR. The primers for the genes lasI, lasR, RhlI, RhlR and 16S rRNA were used (Table 2). All primers were synthesized by the Integrated DNA Technology (IDT), Canada. The reaction mixture consisted of 1× AccuPower® 2X GreenStar™ qPCR Master Mix, 0.4 μmol/L each forward primer and reverse primer and 1 μL of cDNA in a final volume of 10 μL. Thermal cycles used was 95 ^OC for 2.5 min, followed by 40 cycles of 95 ^OC for 30 sec, 60 ^OC for 30 sec and 72 ^OC for 30 sec. The expression level of the target gene was normalized to 16S rRNA gene. Relative expression of the target genes was obtained from 2^‒ΔΔct.

[5] = test system: lasR mRNA; assay: qRT-PCR of quorum sensing-related gene lasR; type: cell-based, Pseudomonas aeruginosa; conditions: 800 µM, 10 h
Experimental: as §2

[6] = test system: pyocyanin production of P. aeruginosa PAO1; assay: Pyocyanin assay, chloroform extraction; type: cell-based, Pseudomonas aeruginosa
Experimental: Pyocyanin pigments produced by P. aeruginosa PAO1 after exposure to the BmKn‒22 peptide were determined according to the protocol described previously. Briefly, 750 μL of P. aeruginosa suspension (10^7 CFU/mL, final concentration) was mixed with 250 μL of LB broth containing the test peptide at final concentrations of 200 ‒ 800 μM and incubated at 37 ^OC for 24 hours with agitation (150 rpm). Control culture without the test peptide was simultaneously propagated. After centrifugation at 4,500 rpm for 10 minutes, supernatant was collected and pyocyanin was extracted with chloroform followed by 0.2 N HCl. The suspension was centrifuged once at 4,500 rpm for 10 minutes, and the pink phase layer was subjected to optical density determination at […] using a microplate reader (BioTek Synergy HT).

[7] = normalized to 16S rRNA, 2^-ΔΔct, untreated control = 1, mean of 2 independent experiments in quadruplicate

FIGAIARLLSK [BmKn-22]
lysis of red blood cells [1]: less or no hemolysis
biofilm reduction ([2]; BmKn-22 at 200 µM combined with 64 µg/mL azithromycin (1/2 MIC)): Up to 51.39%
biofilm reduction ([2]; BmKn-22 at 400 µM combined with 64 µg/mL azithromycin (1/2 MIC)): ≤ 62.05%
biofilm reduction ([2]; BmKn-22 at 800 µM combined with 64 µg/mL azithromycin (1/2 MIC)): 96.97%
Biofilm biomass (% control) ([2]; peptide alone 200 µM, 24 h, 37 °C, crystal violet, mean of 3 independent experiments): 80.903 % control
Biofilm biomass (% control) ([2]; peptide alone 200 µM, Exp. 1): 94.033 % control
Biofilm biomass (% control) ([2]; peptide alone 200 µM, Exp. 2): 82.424 % control
Biofilm biomass (% control) ([2]; peptide alone 200 µM, Exp. 3): 66.251 % control
Biofilm biomass (% control) ([2]; peptide alone 400 µM, 24 h, 37 °C, crystal violet, mean of 3 independent experiments): 67.309 % control
Biofilm biomass (% control) ([2]; peptide alone 400 µM, Exp. 1): 75.858 % control
Biofilm biomass (% control) ([2]; peptide alone 400 µM, Exp. 2): 68.773 % control
Biofilm biomass (% control) ([2]; peptide alone 400 µM, Exp. 3): 57.297 % control
Biofilm biomass (% control) ([2]; peptide alone 800 µM, 24 h, 37 °C, crystal violet, mean of 3 independent experiments): 43.753 % control
Biofilm biomass (% control) ([2]; peptide alone 800 µM, Exp. 1): 51.716 % control
Biofilm biomass (% control) ([2]; peptide alone 800 µM, Exp. 2): 46.698 % control
Biofilm biomass (% control) ([2]; peptide alone 800 µM, Exp. 3): 32.845 % control
Biofilm inhibition (%), biofilm formation ([3]; 200 µM, Exp. 1): 27.575%
Biofilm inhibition (%), biofilm formation ([3]; 200 µM, Exp. 2): 27.680%
Biofilm inhibition (%), biofilm formation ([3]; 200 µM, Exp. 3): 8.419%
Biofilm inhibition (%), biofilm formation ([3]; 400 µM, Exp. 1): 20.197%
Biofilm inhibition (%), biofilm formation ([3]; 400 µM, Exp. 2): 40.825%
Biofilm inhibition (%), biofilm formation ([3]; 400 µM, Exp. 3): 37.257%
reduction of P. aeruginosa biofilms ([3]; 800 µM, 24 h, compared with untreated control, result in words): marked reduction
Biofilm inhibition (%), biofilm formation ([3]; 800 µM, Exp. 1): 46.468%
Biofilm inhibition (%), biofilm formation ([3]; 800 µM, Exp. 2): 53.212%
Biofilm inhibition (%), biofilm formation ([3]; 800 µM, Exp. 3): 47.945%
Relative mRNA expression, lasI [4, 7]: 0.403
Relative mRNA expression, lasI ([4]; Exp. 1): 0.314
Relative mRNA expression, lasI ([4]; Exp. 2): 0.491
mRNA expression of lasI ([4]; result in words): significantly (P < 0.05) decreased
Relative mRNA expression, lasR [5, 7]: 0.949
Relative mRNA expression, lasR ([5]; Exp. 1): 0.732
Relative mRNA expression, lasR ([5]; Exp. 2): 1.166
mRNA expression of lasR ([5]; result in words): no alteration
Pyocyanin production (% control) ([6]; 200 µM, 37 °C, 24 h, 150 rpm, OD 380 nm, mean of 3 independent experiments): 47.395 % control
Pyocyanin production (% control) ([6]; 200 µM, Exp. 1): 62.849 % control
Pyocyanin production (% control) ([6]; 200 µM, Exp. 2): 40.419 % control
Pyocyanin production (% control) ([6]; 200 µM, Exp. 3): 38.918 % control
Pyocyanin production (% control) ([6]; 400 µM, 37 °C, 24 h, 150 rpm, OD 380 nm, mean of 3 independent experiments): 48.157 % control
Pyocyanin production (% control) ([6]; 400 µM, Exp. 1): 59.310 % control
Pyocyanin production (% control) ([6]; 400 µM, Exp. 2): 37.273 % control
Pyocyanin production (% control) ([6]; 400 µM, Exp. 3): 47.889 % control
Pyocyanin production (% control) ([6]; 800 µM, 37 °C, 24 h, 150 rpm, OD 380 nm, mean of 3 independent experiments): 60.164 % control
Pyocyanin production (% control) ([6]; 800 µM, Exp. 1): 68.994 % control
Pyocyanin production (% control) ([6]; 800 µM, Exp. 2): 42.898 % control
Pyocyanin production (% control) ([6]; 800 µM, Exp. 3): 68.601 % control
